Measurements reported in patent US20120316105A1, “Polymyxin Derivates Useful As Antibacterial Agents” (priority 2011, published 2012).
Like-named read-outs stand apart in the source and are kept apart here. Numbered stars: 1 amine (or outer) side, 2 acyl side, 3 side chain; on linkers, the order of the positions; unused ones are H or OH. Bridge positions count the residues as written; N and C are the ends. Square brackets hold non-standard residues; d marks the D form. Peptide text beside a SMILES is read from it. * marks the point of attachment. X4 = N#Cc1cccc(-c2cc(C(=O)*)ccc2C#N)c1; X21 = N#Cc1cccc(-c2cc(C(=O)*)ccn2)c1; X34 = COc1ccc(-c2cc(C(=O)*)ccn2)cc1; X38 = O=S(=O)(c1cccc(-c2ccccc2)c1)*; X20 = Cc1ccc(-c2cccc(C(=O)*)c2)cc1; X3 = O=C(c1ccnc(-c2cccc(Cl)c2)c1)*; X12 = O=C(c1cccc(-c2ccccc2F)c1)*; X7 = O=C(c1ccnc(-c2ccccc2F)c1)*; X36 = c1ccc(-c2cccc(N*)c2)cc1; Dab = NCC[C@H](N)C(=O)O; Dap = NC[C@H](N)C(=O)O; CO = O=C([*:1])[*:2]

Experiments:
[1] = test system: AB-3167, clinical isolate of Acinetobacter baumannii; format: cell-based
Procedure: (§1) Minimum bactericidal concentration (MBC, mg/L), minimum inhibitory concentration (MIC, mg/L), and human renal proximal tubule epithelial cell line cytotoxicity concentration 50% (hRPTEC, TC50, micromolar) for compounds of Formula I are listed in Table 2. The compounds of Formula I were tested as the corresponding trifluoroacetate salt except for Example 1 which was tested as the sulfate salt. For Table 2 below: PMB=polymyxin B as the sulfate salt (Bedford Laboratories, pharmaceutical grade); PMB1=polymyxin B1 as the trifluoroacetate salt; Nona=polymyxin B nonapeptide as the trifluoroacetate salt. PMB1 and Nona were prepared using the solid phase methodology described in the experimental section herein.
(§2) The in vitro antibacterial activity of compounds of Formula I was evaluated by MIC testing according to Clinical and Laboratory Standards Institute (CLSI). See: Clinical and Laboratory Standards Institute. Methods for Dilution Antimicrobial Susceptibility Tests for Bacteria that Grow Aerobically; Approved Standard-Eighth Edition. CLSI document M7-A8 [ISBN 1-56238-689-1]. Clinical and Laboratory Standards Institute, 940 West Valley Road, Suite 1400, Wayne, Pa. 19087-1898 USA, 2006; also Clinical and Laboratory Standards Institute. Performance Standards for Antimicrobial Susceptibility Testing; Twentieth Informational Supplement. CLSI document M100-S20 [ISBN 1-56238-716-2]. Clinical and Laboratory Standards Institute. Methods for Determining Bactericidal Activity of Antimicrobial Agents; Approved Guideline. CLSI document M26-A (ISBN 1-56238-384-1). CLSI, 940 West Valley Road, Suite 1400, Wayne, Pa. 19087-1898 USA, 1999.
(§3) The MIC determination is a standard laboratory method for evaluating the antibacterial activity of a compound. The MIC represents the lowest drug concentration that inhibits visible growth of bacteria following overnight incubation. […] Typically, the drug concentration range is broken down into 2-fold increments (e.g. 0.06 mg/L, 0.12 mg/L, 0.25 mg/L, 0.50 mg/L, 1.0 mg/L, etc.) and the various drug concentrations are all individually incubated overnight with approximately the same number of bacteria. The MIC is then determined by visually inspecting the drug effect at each concentration, and identifying the lowest drug concentration that has inhibited bacterial growth as compared to the drug free control. Typically, bacteria continue to grow at drug concentrations lower than the MIC and don't grow at concentrations at and above the MIC.
(§4) The MIC values described in Table 2 below were derived from assays wherein each test compound was evaluated in duplicate. In cases where the duplicate values varied by 0-2-fold, the lower of the two values was reported below. Generally speaking, if the duplicate values varied by more than 2-fold, the assay was considered non-valid and was repeated until the variation between duplicate runs was ≦2-fold. In line with the CLSI guidelines referred to above, both control organisms and reference compounds were utilized in each MIC assay to provide proper quality control. MIC values generated with these control organisms and reference compounds were required to fall within a defined range for the assay to be considered valid and be included herein. Those skilled in the art will recognize that MIC values can and do vary from experiment to experiment. Generally speaking, it should be recognized that MIC values often vary +/−2-fold from experiment to experiment. While a single MIC is reported for each compound and each microorganism, the reader should not conclude that each compound was only tested once. Several of the compounds were subjected to multiple tests. The data reported in Table 2 is reflective of the compounds relative activity and different MICs may have been generated on these occasions in line with the guidelines described above.
(§5) The following bacterial strains were used in these MIC determinations: […]

[2] = test system: Pseudomonas aeruginosa strain PA01; format: cell-based; settings: strain
Procedure: as §1, §2, §3, §4, §5

[3] = test system: PA-1646, polymyxin-resistant clinical isolate of Pseudomonas aeruginosa; format: cell-based; settings: PA-1646, polymyxin-resistant clinical isolate of
Procedure: as §1, §2, §3, §4, §5

[4] = test system: AB-1649, polymyxin-resistant clinical isolate of Acinetobacter baumannii; format: cell-based; settings: AB-1649, polymyxin-resistant clinical isolate of
Procedure: as §1, §2, §3, §4, §5

[5] = test system: PA-1646, polymyxin-resistant clinical isolate of Pseudomonas aeruginosa; format: cell-based; settings: PA-1646, polymyxin-resistant clinical isolate of; remark: listed apart in the source
Procedure: as §1, §2
PA-1646 is a polymyxin-resistant clinical isolate of Pseudomonas aeruginosa obtained from JMI labs (www.jmilabs.com);

[6] = test system: EC-1, mouse virulent strain of Escherichia coli; format: cell-based; settings: E. coli EC-1; overnight incubation, lower of duplicate values; trifluoroacetate salt (Example 1 and PMB sulfate)
Procedure: as §1, §2, §3, §4
The following bacterial strains were used in these MIC determinations:
EC-1 is a mouse virulent strain of Escherichia coli.

[7] = Cytotoxicity assay (LDH release), hRPTEC; format: cell-based, human; settings: human
Procedure: as §1
Human Renal Proximal Tubule Epithelial cells (hRPTEC) were obtained from Lonza (Walkersville, Md., USA) and cultured in REGM (Renal Epithelial Cell Basal Medium supplemented with human epithelial growth factor, hydrocortisone, epinephrine, insulin, triiodothyronine, transferrin, gentamycin/amphotericin-B, and fetal bovine serum). The hRPTEC cells were seeded into 96-well plates and incubated at 37° C. in 5% CO2. Following a growth period of 72 hours, cells were treated with compounds at 100, 67, 44, 30, 20 and 13 micromolar for 24 hours at 37° C. in 5% CO2. The cell supernatant was then harvested for determination of LDH (lactate dehydrogenase) production. The Cytotoxicity Detection Kit from Roche was used for the measurement of LDH activity released from damaged cells. The Toxic Concentration 50% (TC50, micromolar) values were determined for each compound and compared to the control compounds (polymyxin B was used as a positive control and polymyxin B nonapepetide was used as negative control).

[8] = test system: AB-1649, polymyxin-resistant clinical isolate of Acinetobacter baumannii; format: cell-based; settings: AB-1649, polymyxin-resistant clinical isolate of; remark: listed apart in the source
Procedure: as §1, §2
AB-1649 is a polymyxin-resistant clinical isolate of Acinetobacter baumannii obtained from JMI labs (www.jmilabs.com);

Row | SMILES | AB-3167 MIC ([1]; AB-3167, clinical isolate of) | PA01 MIC [2] | PA-1646 MIC [3] | AB-1649 MIC [4] | PA-1646 MBC [5] | EC-1 MIC [6] | CC50 at 24 h [7] | AB-1649 MBC [8] | AB-3167 MIC ([1]; A. baumannii AB-3167, overnight incubation, lower of duplicate values, trifluoroacetate salt (Example 1 and PMB sulfate))
1 | COc1ccc(-c2cc(C(=O)N[C@@H](CCN)C(=O)N[C@H](C(=O)N[C@@H](CN)C(=O)N[C@H]3CCNC(=O)[C@H]([C@@H](C)O)NC(=O)[C@H](CCN)NC(=O)[C@H](CCN)NC(=O)[C@H](CC(C)C)NC(=O)[C@@H](Cc4ccccc4)NC(=O)[C@H](CCN)NC3=O)[C@@H](C)O)ccn2)cc1 [Example 22] (X34-[Dab]T[Dap][Dab][Dab][dF]L[Dab][Dab]T; lactam 4-C) | 0.25 µg/mL | 0.5 µg/mL | 2 µg/mL | 2 µg/mL | 8 µg/mL | 0.25 µg/mL | 78 µM | 2 µg/mL | 
2 | Cc1ccc(-c2cccc(C(=O)N[C@@H](CCN)C(=O)N[C@H](C(=O)N[C@@H](CN)C(=O)N[C@H]3CCNC(=O)[C@H]([C@@H](C)O)NC(=O)[C@H](CCN)NC(=O)[C@H](CCN)NC(=O)[C@H](CC(C)C)NC(=O)[C@@H](Cc4ccccc4)NC(=O)[C@H](CCN)NC3=O)[C@@H](C)O)c2)cc1 [Example 37] (X20-[Dab]T[Dap][Dab][Dab][dF]L[Dab][Dab]T; lactam 4-C) | 1 µg/mL | 2 µg/mL | 2 µg/mL | 4 µg/mL | 4 µg/mL | 0.5 µg/mL | 18 µM | 4 µg/mL | 
3 | CC(C)C[C@@H]1NC(=O)[C@@H](Cc2ccccc2)NC(=O)[C@H](CCN)NC(=O)[C@@H](NC(=O)[C@H](CN)NC(=O)[C@@H](NC(=O)[C@H](CCN)NC(=O)c2ccnc(-c3ccccc3F)c2)[C@@H](C)O)CCNC(=O)[C@H]([C@@H](C)O)NC(=O)[C@H](CCN)NC(=O)[C@H](CCN)NC1=O [Example 5] (X7-[Dab]T[Dap][Dab][Dab][dF]L[Dab][Dab]T; lactam 4-C) |  | 0.5 µg/mL | 2 µg/mL | 1 µg/mL | 4 µg/mL | 0.125 µg/mL | 83 µM | 1 µg/mL | 0.125 µg/mL
4 | CC(C)C[C@@H]1NC(=O)[C@@H](Cc2ccccc2)NC(=O)[C@H](CCN)NC(=O)[C@@H](NC(=O)[C@H](CN)NC(=O)[C@@H](NC(=O)[C@H](CCN)NC(=O)c2ccnc(-c3cccc(C#N)c3)c2)[C@@H](C)O)CCNC(=O)[C@H]([C@@H](C)O)NC(=O)[C@H](CCN)NC(=O)[C@H](CCN)NC1=O [Example 15] (X21-[Dab]T[Dap][Dab][Dab][dF]L[Dab][Dab]T; lactam 4-C) | 0.25 µg/mL | 0.5 µg/mL | 4 µg/mL | 2 µg/mL | 16 µg/mL | 0.125 µg/mL | 43 µM | 2 µg/mL | 
5 | CC(C)C[C@@H]1NC(=O)[C@@H](Cc2ccccc2)NC(=O)[C@H](CCN)NC(=O)[C@@H](NC(=O)[C@H](CN)NC(=O)[C@@H](NC(=O)[C@H](CCN)NC(=O)c2ccnc(-c3cccc(Cl)c3)c2)[C@@H](C)O)CCNC(=O)[C@H]([C@@H](C)O)NC(=O)[C@H](CCN)NC(=O)[C@H](CCN)NC1=O [Example 3] (X3-[Dab]T[Dap][Dab][Dab][dF]L[Dab][Dab]T; lactam 4-C) | 0.25 µg/mL | 0.5 µg/mL | 1 µg/mL | 0.5 µg/mL | 1 µg/mL | 0.125 µg/mL | 34 µM | 0.5 µg/mL | 
6 | CC(C)C[C@@H]1NC(=O)[C@@H](Cc2ccccc2)NC(=O)[C@H](CCN)NC(=O)[C@@H](NC(=O)[C@H](CN)NC(=O)[C@@H](NC(=O)[C@H](CCN)NS(=O)(=O)c2cccc(-c3ccccc3)c2)[C@@H](C)O)CCNC(=O)[C@H]([C@@H](C)O)NC(=O)[C@H](CCN)NC(=O)[C@H](CCN)NC1=O [Example 41] (X38-[Dab]T[Dap][Dab][Dab][dF]L[Dab][Dab]T; lactam 4-C) | 1 µg/mL | 0.25 µg/mL | 2 µg/mL | 64 µg/mL | 4 µg/mL | 0.25 µg/mL | 42 µM | >64 µg/mL | 
7 | CC(C)C[C@@H]1NC(=O)[C@@H](Cc2ccccc2)NC(=O)[C@H](CCN)NC(=O)[C@@H](NC(=O)[C@H](CN)NC(=O)[C@@H](NC(=O)[C@H](CCN)NC(=O)Nc2cccc(-c3ccccc3)c2)[C@@H](C)O)CCNC(=O)[C@H]([C@@H](C)O)NC(=O)[C@H](CCN)NC(=O)[C@H](CCN)NC1=O [Example 40] ({X36-CO}-[Dab]T[Dap][Dab][Dab][dF]L[Dab][Dab]T; lactam 4-C) | 0.25 µg/mL | 0.5 µg/mL | 1 µg/mL | 4 µg/mL | 1 µg/mL | 0.25 µg/mL | 15 µM | 4 µg/mL | 
8 | CC(C)C[C@@H]1NC(=O)[C@@H](Cc2ccccc2)NC(=O)[C@H](CCN)NC(=O)[C@@H](NC(=O)[C@H](CN)NC(=O)[C@@H](NC(=O)[C@H](CCN)NC(=O)c2cccc(-c3ccccc3F)c2)[C@@H](C)O)CCNC(=O)[C@H]([C@@H](C)O)NC(=O)[C@H](CCN)NC(=O)[C@H](CCN)NC1=O [Example 9] (X12-[Dab]T[Dap][Dab][Dab][dF]L[Dab][Dab]T; lactam 4-C) | 0.25 µg/mL | 0.5 µg/mL | 2 µg/mL | 1 µg/mL | 2 µg/mL | 0.25 µg/mL | 24 µM | 2 µg/mL | 
9 | CC(C)C[C@@H]1NC(=O)[C@@H](Cc2ccccc2)NC(=O)[C@H](CCN)NC(=O)[C@@H](NC(=O)[C@H](CN)NC(=O)[C@@H](NC(=O)[C@H](CCN)NC(=O)c2ccc(C#N)c(-c3cccc(C#N)c3)c2)[C@@H](C)O)CCNC(=O)[C@H]([C@@H](C)O)NC(=O)[C@H](CCN)NC(=O)[C@H](CCN)NC1=O [Example 14] (X4-[Dab]T[Dap][Dab][Dab][dF]L[Dab][Dab]T; lactam 4-C) | 0.5 µg/mL | 0.5 µg/mL | 4 µg/mL | 2 µg/mL | 16 µg/mL | 0.5 µg/mL | 43 µM | 2 µg/mL | 
